# Source: ChEMBL document CHEMBL3885861, “Open TG-GATES”
# Species on record: Rattus norvegicus
# Test: Open TG-GATES - Regimen: Single
# Assay type: toxicity, organism-based, Sprague-Dawley
# Parameters: regimen Single, gender Male, age 6 weeks
# Details: in vivo, po, 10 mg/kg, route gavage, dose level Low; for APTT / Bas / Eos / Fbg / Hb / Ht / Lym / MCH / MCHC / MCV / Mono / Neu / PT / Plat / RBC / Ret / WBC: tissue Blood; for KIDNEY_L / KIDNEY_R / KIDNEY_TOTAL: tissue Kidney; for LIVER: tissue Liver; for A/G / ALP / ALT / AST / BUN / CRE / Ca / Cl / DBIL / GLC / IP / K / LDH / Na / PL / RALB / TBIL / TC / TG / TP / gamma-GTP: tissue Plasma
smiles,measurement,setting,value
OCCOCCN1CCN(C(c2ccccc2)c2ccc(Cl)cc2)CC1 (configuration not stated) [HYDROXYZINE],TERMINAL_BW,3 h,192.7 g
same,APTT,3 h,15.4 s
same,Bas,3 h,0.4%
same,Eos,3 h,0.6%
same,Fbg,3 h,276.8 mg/dL
same,Hb,3 h,12.7 g/dL
same,Ht,3 h,39.3%
same,Lym,3 h,80.6%
same,MCH,3 h,21.7 pg
same,MCHC,3 h,32.3%
same,MCV,3 h,67 fL
same,Mono,3 h,2.6%
same,Neu,3 h,15.2%
same,PT,3 h,15.1 s
same,Plat,3 h,113 x10_4/uL
same,RBC,3 h,587.8 x10_4/ul
same,Ret,3 h,9.1%
same,WBC,3 h,89.2 x10_2/uL
same,KIDNEY_L,3 h,0.8 g
same,KIDNEY_R,3 h,0.9 g
same,KIDNEY_TOTAL,3 h,1.7 g
same,LIVER,3 h,9 g
same,A/G,3 h,0.8
same,ALP,3 h,1362.6 IU/L
same,ALT,3 h,43.4 IU/L
same,AST,3 h,75.6 IU/L
same,BUN,3 h,11.2 mg/dL
same,CRE,3 h,0.2 mg/dL
same,Ca,3 h,11.1 mg/dL
same,Cl,3 h,105.2 meq/L
same,DBIL,3 h,0.016 mg/dL
same,GLC,3 h,176.6 mg/dL
same,IP,3 h,9.4 mg/dL
same,K,3 h,4.4 meq/L
same,LDH,3 h,80.4 IU/L
same,Na,3 h,141.6 meq/L
same,PL,3 h,137.2 mg/dL
same,RALB,3 h,2.4 g/dL
same,TBIL,3 h,0.064 mg/dL
same,TC,3 h,74.6 mg/dL
same,TG,3 h,46.2 mg/dL
same,TP,3 h,5.3 g/dL
same,gamma-GTP,3 h,1 IU/L
same,TERMINAL_BW,6 h,193.5 g
same,APTT,6 h,15.7 s
same,Bas,6 h,0%
same,Eos,6 h,0.8%
same,Fbg,6 h,285.2 mg/dL
same,Hb,6 h,12.8 g/dL
same,Ht,6 h,40.3%
same,Lym,6 h,75.8%
same,MCH,6 h,21.3 pg
same,MCHC,6 h,31.8%
same,MCV,6 h,67.1 fL
same,Mono,6 h,2.6%
same,Neu,6 h,20.2%
same,PT,6 h,15.2 s
same,Plat,6 h,114.7 x10_4/uL
same,RBC,6 h,601.2 x10_4/ul
same,Ret,6 h,9.2%
same,WBC,6 h,77.4 x10_2/uL
same,KIDNEY_L,6 h,0.9 g
same,KIDNEY_R,6 h,0.9 g
same,KIDNEY_TOTAL,6 h,1.7 g
same,LIVER,6 h,8.1 g
same,A/G,6 h,0.9
same,ALP,6 h,1554.6 IU/L
same,ALT,6 h,46.8 IU/L
same,AST,6 h,83.2 IU/L
same,BUN,6 h,9 mg/dL
same,CRE,6 h,0.2 mg/dL
same,Ca,6 h,10.9 mg/dL
same,Cl,6 h,106.2 meq/L
same,DBIL,6 h,0.006 mg/dL
same,GLC,6 h,175.2 mg/dL
same,IP,6 h,10.1 mg/dL
same,K,6 h,4.3 meq/L
same,LDH,6 h,80.2 IU/L
same,Na,6 h,142.8 meq/L
same,PL,6 h,139.4 mg/dL
same,RALB,6 h,2.5 g/dL
same,TBIL,6 h,0.062 mg/dL
same,TC,6 h,78.8 mg/dL
same,TG,6 h,32.4 mg/dL
same,TP,6 h,5.3 g/dL
same,gamma-GTP,6 h,0.8 IU/L
same,TERMINAL_BW,9 h,190.5 g
same,APTT,9 h,16.2 s
same,Bas,9 h,0%
same,Eos,9 h,0.4%
same,Fbg,9 h,288.8 mg/dL
same,Hb,9 h,12.8 g/dL
same,Ht,9 h,39.6%
same,Lym,9 h,71.2%
same,MCH,9 h,21.3 pg
same,MCHC,9 h,32.3%
same,MCV,9 h,65.7 fL
same,Mono,9 h,3%
same,Neu,9 h,24%
same,PT,9 h,15.2 s
same,Plat,9 h,118.3 x10_4/uL
same,RBC,9 h,601.8 x10_4/ul
same,Ret,9 h,8.2%
same,WBC,9 h,63.8 x10_2/uL
same,KIDNEY_L,9 h,0.9 g
same,KIDNEY_R,9 h,0.8 g
same,KIDNEY_TOTAL,9 h,1.7 g
same,LIVER,9 h,7.9 g
same,A/G,9 h,0.8
same,ALP,9 h,1271.4 IU/L
same,ALT,9 h,37.4 IU/L
same,AST,9 h,70.2 IU/L
same,BUN,9 h,9.2 mg/dL
same,CRE,9 h,0.2 mg/dL
same,Ca,9 h,10.7 mg/dL
same,Cl,9 h,106.8 meq/L
same,DBIL,9 h,0.012 mg/dL
same,GLC,9 h,184.6 mg/dL
same,IP,9 h,10.2 mg/dL
same,K,9 h,4.1 meq/L
same,LDH,9 h,78.8 IU/L
same,Na,9 h,142.4 meq/L
same,PL,9 h,139.4 mg/dL
same,RALB,9 h,2.5 g/dL
same,TBIL,9 h,0.062 mg/dL
same,TC,9 h,81.4 mg/dL
same,TG,9 h,29.4 mg/dL
same,TP,9 h,5.5 g/dL
same,gamma-GTP,9 h,1 IU/L
same,TERMINAL_BW,24 h,210.3 g
same,APTT,24 h,15 s
same,Bas,24 h,0%
same,Eos,24 h,1%
same,Fbg,24 h,276.8 mg/dL
same,Hb,24 h,12.7 g/dL
same,Ht,24 h,39.6%
same,Lym,24 h,73.4%
same,MCH,24 h,21.9 pg
same,MCHC,24 h,32%
same,MCV,24 h,68.5 fL
same,Mono,24 h,2.8%
same,Neu,24 h,22.6%
same,PT,24 h,16 s
same,Plat,24 h,121.3 x10_4/uL
same,RBC,24 h,578.6 x10_4/ul
same,Ret,24 h,8.8%
same,WBC,24 h,79 x10_2/uL
same,KIDNEY_L,24 h,0.9 g
same,KIDNEY_R,24 h,0.9 g
same,KIDNEY_TOTAL,24 h,1.8 g
same,LIVER,24 h,10.1 g
same,A/G,24 h,0.9
same,ALP,24 h,1714.2 IU/L
same,ALT,24 h,45.2 IU/L
same,AST,24 h,71.4 IU/L
same,BUN,24 h,14.2 mg/dL
same,CRE,24 h,0.2 mg/dL
same,Ca,24 h,11.4 mg/dL
same,Cl,24 h,106 meq/L
same,DBIL,24 h,0.02 mg/dL
same,GLC,24 h,177.6 mg/dL
same,IP,24 h,8.2 mg/dL
same,K,24 h,4.3 meq/L
same,LDH,24 h,104.2 IU/L
same,Na,24 h,142.8 meq/L
same,PL,24 h,147.4 mg/dL
same,RALB,24 h,2.6 g/dL
same,TBIL,24 h,0.058 mg/dL
same,TC,24 h,77.2 mg/dL
same,TG,24 h,69.4 mg/dL
same,TP,24 h,5.6 g/dL
same,gamma-GTP,24 h,1 IU/L
